Results taken from US20240261258A1, “Presurgical Perineural Administration of Resiniferatoxin For Reduction of Post-Operative Pain” (Sorrento Therapeutics, Inc., priority 2021, published 2024).

Legend:
[1] = system: stifle of dogs after TPLO; test: Radiographic, CT and MRI evaluation of bone healing; format: in vivo, dog; settings: for Pattern of healing N (no findings), No. of Dogs / Pattern of healing S (soft tissue swelling with normal bone healing), No. of Dogs / Pattern of healing S&B (soft tissue swelling and delayed bone healing), No. of Dogs: 4 dogs
Protocol: Radiographs of the stifle were performed before surgery, the day after surgery, at day 28, and at day 56. Dogs were sedated to allow for correct positioning of the leg and to minimize stress from handling. Standardized TPLO views (lateral and caudal-cranial) were acquired. An MRI and CT were also performed on the operated leg after the animals were euthanized and the surgical plate was removed (day 56).
Orthogonal plane radiographs of the stifle were obtained for all dogs at all timepoints. After euthanasia, CT was obtained in 11 of the 14 dogs and MRI in all dogs. Metal artifact due to the presence of a broken screw prevented the evaluation of one MR study. Soft tissues could not be reliably assessed due to disruption secondary to removal of the plate. There was no evidence of implant failure or suboptimal osteotomy repair in any dog. Upon review of all imaging modalities, three patterns of healing emerged (Table 9a).
The delay of bone healing refers to a slower bone healing process as compared to the findings in the rest of the dogs in this study. This is not to be considered as an absolute delayed bone healing since the dogs were only enrolled in the study for 56 days

[2] = system: CGRP immunopositive axons of sciatic and femoral nerves; test: Quantification of CGRP immunopositive nerve fibers; format: in vivo, dog
Protocol: FIGS. 1A-J show density of CGRP immunopositive axons in representative confocal images of ipsilateral (left; A-D) and contralateral (right; E-H) sciatic nerve from dogs post-TPLO and after different treatment and doses of RTX. Each bar represents the mean±SEM. Data were analyzed by one-way ANOVA followed by Tukey post hoc test; *p<0.05. FIGS. 1I-J are bar graphs of the density of CGRP immunopositive axons, (density of nerve fibers in mm/mm3) in ipsilateral (I) and contralateral (J) sciatic nerves as measured in n subjects in each group.
FIGS. 3A-J show CGRP immunopositive axon density in representative confocal images of ipsilateral (left; A-D) and contralateral (right; E-H) femoral nerve from dogs post-TPLO surgery and after different treatment and doses of RTX. Each bar represents the mean±SEM. Data were analyzed by one-way ANOVA followed by Tukey post hoc test; *p<0.05. FIGS. 3I-J are bar graphs of the density of CGRP immunopositive axons (density of nerve fibers in mm/mm3) in ipsilateral (I), and contralateral (J) femoral nerves as measured in n subjects in each group.
The effects of different routes of administration and/or different doses of RTX on the density of CGRP immunopositive axons in the ipsilateral (left) and contralateral (right) sciatic nerves are shown in FIG. 1. […] However, statistical significance was observed only with the dose of 12.5 μg (25 μg total; p=0.0184) per nerve of RTX. FIGS. 1E-H show the effect of different treatment and doses of RTX on the density of CGRP nerve axons innervating the contralateral (right) sciatic nerve from animals post-TPLO.

C=C(C)[C@]12C[C@@H](C)[C@@]34O[C@](Cc5ccccc5)(O[C@@H]1[C@@H]3C=C(COC(=O)Cc1ccc(O)c(OC)c1)C[C@]1(O)C(=O)C(C)=C[C@@H]41)O2 [RTX, resiniferatoxin]
Pattern of healing N (no findings), No. of Dogs ([1]; Group 1 (high dose)): 1
Pattern of healing S (soft tissue swelling with normal bone healing), No. of Dogs ([1]; Group 1 (high dose)): 2
Pattern of healing S&B (soft tissue swelling and delayed bone healing), No. of Dogs ([1]; Group 1 (high dose)): 1
Pattern of healing N (no findings), No. of Dogs ([1]; Group 2 (low dose)): 2
Pattern of healing S (soft tissue swelling with normal bone healing), No. of Dogs ([1]; Group 2 (low dose)): 1
Pattern of healing S&B (soft tissue swelling and delayed bone healing), No. of Dogs ([1]; Group 2 (low dose)): 1
Pattern of healing N (no findings), No. of Dogs ([1]; Group 3 (local)): 1
Pattern of healing S (soft tissue swelling with normal bone healing), No. of Dogs ([1]; Group 3 (local)): 1
Pattern of healing S&B (soft tissue swelling and delayed bone healing), No. of Dogs ([1]; Group 3 (local)): 2
Effect on the bone healing process ([1]; distribution of healing patterns among the treatment groups): did not adversely affect the bone healing process
Density of CGRP nerve axons in the contralateral sciatic nerve vs control treatment ([2]; RTX treated groups, p=0.9565, p=0.7911, p=0.7229): no differences
Density of CGRP nerve axons in the contralateral femoral nerve vs control treatment ([2]; any RTX treatment, p=0.9914, p>0.9999, p=0.1760): did not statistically reduce
Density of CGRP nerve axons in the ipsilateral sciatic nerve vs control treatment ([2]; local administration (50 μg), not statistically significant): reduced the density of CGRP nerve axons
Density of CGRP nerve axons in the ipsilateral sciatic nerve vs control treatment ([2]; peri-neural 3.12 μg per nerve (6.25 μg total), not statistically significant): reduced the density of CGRP nerve axons
Density of CGRP nerve axons in the ipsilateral femoral nerve ([2]; peri-neural 12.5 μg per nerve (25 μg total), p=0.0125): statistically reduced
Density of CGRP nerve axons in the ipsilateral sciatic nerve vs control treatment ([2]; peri-neural 12.5 μg per nerve (25 μg total), statistically significant, p=0.0184): reduced the density of CGRP nerve axons
